Experimental data published in ChEMBL document CHEMBL6120947, “Synthesis and Antiosteoporotic Characterization of Diselenyl Maleimides: Discovery of a Potent Agent for the Treatment of Osteoporosis by Targeting RANKL” (J Med Chem, 2024).
pIC50: −log10 of the molar value. Activity calls are given as the source filed them. The calls are words filed in the database; no cut-off is given here.

Legend:
[1] = Toxicity in OVX-induced osteoporosis C57BL/6 mouse model assessed as body weight change at 10 mg/kg, po administered every other day for 8 weeks; assay type: organism-based; conditions: in vivo, 1344 h
[2] = test system: BMDM; assay: Inhibition of osteoclastogenesis in M-CSF/RANKL-induced osteoclast differentiation in C57BL/6J mouse BMDM cells assessed as decrease in c-Fos mRNA level at 1 uM measured for 5 days by qRT-PCR analysis; assay type: functional, cell-based; conditions: time 5.0 day
[3] = test system: Mus musculus; assay: Anti-osteoporosis effect in OVX-induced osteoporosis C57BL/6 mouse model assessed as improvement of bone surface in femur at 10 mg/kg, po administered every other day for 8 weeks by H and E staining based analysis; assay type: functional, organism-based
[4] = test system: MC3T3-E1; assay: Effect on osteoblast differentiation in mouse MC3T3-E1 cells assessed as change in ALP level at 0.5 to 2 uM incubated for 7 days by Western blot analysis; assay type: functional, cell-based; conditions: dose 0.5-2 µM, time 7.0 day
[5] = test system: MC3T3-E1; assay: Effect on osteoblast mineralization in mouse MC3T3-E1 cells assessed as change in calcium nodules at 0.5 to 2 uM incubated for 7 days by ARS staining based analysis; assay type: functional, cell-based; conditions: dose 0.5-2 µM, time 7.0 day
[6] = test system: Mus musculus; assay: Anti-osteoporosis effect in OVX-induced osteoporosis C57BL/6 mouse model assessed as increase in Tb.N value at 10 mg/kg, po administered every other day for 8 weeks by micro-CT analysis; assay type: functional, organism-based
[7] = test system: MC3T3-E1; assay: Effect on osteoblast differentiation in mouse MC3T3-E1 cells assessed as change in BMP2 mRNA level at 0.5 to 2 uM incubated for 7 days by qRT-PCR analysis; assay type: functional, cell-based; conditions: dose 0.5-2 µM, time 7.0 day
[8] = Inhibition of C57BL/6 mouse T cell proliferation upto 2 uM incubated for 5 days by APC-Annexin V staining based analysis; assay type: toxicity; conditions: 120 h, time 5 day
[9] = test system: BMDM; assay: Inhibition of osteoclastogenesis in M-CSF/RANKL-induced osteoclast differentiation in C57BL/6J mouse BMDM cells assessed as suppression of multinucleated osteoclasts formation incubated for 6 days by TRAP staining based analysis; assay type: functional, cell-based
[10] = test system: BMDM; assay: Effect in ERK level in M-CSF/RANKL-induced osteoclast differentiation in C57BL/6J mouse BMDM cells at 1 uM measured upto 60 mins by Western blot analysis; assay type: functional, cell-based
[11] = test system: BMDM; assay: Inhibition of osteoclastogenesis in M-CSF/RANKL-induced osteoclast differentiation in C57BL/6J mouse BMDM cells assessed as reduction in p38 phosphorylation at 1 uM measured upto 60 mins by Western blot analysis; assay type: functional, cell-based
[12] = test system: BMDM; assay: Inhibition of osteoclastogenesis in M-CSF/RANKL-induced osteoclast differentiation in C57BL/6J mouse BMDM cells assessed as reduction in c-Fos level measured after 5 days by Western blot analysis; assay type: functional, cell-based; conditions: dose <= 2.0 µM, time 5.0 day
[13] = test system: MC3T3-E1; assay: Effect on osteoblast differentiation in mouse MC3T3-E1 cells assessed as change in ALP level at 0.5 to 2 uM incubated for 7 days by inverted microscopy; assay type: functional, cell-based; conditions: dose 0.5-2 µM, time 7.0 day
[14] = test system: BMDM; assay: Inhibition of osteoclastogenesis in M-CSF/RANKL-induced osteoclast differentiation in C57BL/6J mouse BMDM cells assessed as decrease in c-Fos level at 1 uM measured for 5 days by Western blot analysis; assay type: functional, cell-based; conditions: time 5.0 day
[15] = test system: BMDM; assay: Inhibition of osteoclastogenesis in M-CSF/RANKL-induced osteoclast differentiation in C57BL/6J mouse BMDM cells at 1 uM measured for 1 to 3 days by TRAP staining based analysis; assay type: functional, cell-based; conditions: time 1-3 day
[16] = test system: MC3T3-E1; assay: Effect on osteoblast differentiation in mouse MC3T3-E1 cells assessed as change in ALP mRNA level at 0.5 to 2 uM incubated for 7 days by qRT-PCR analysis; assay type: functional, cell-based; conditions: dose 0.5-2 µM, time 7.0 day
[17] = Toxicity in OVX-induced osteoporosis C57BL/6 mouse model assessed as pathological change in spleen at 10 mg/kg, po administered every other day for 8 weeks by H and E staining based analysis; assay type: organism-based; conditions: in vivo, 1344 h
[18] = test system: BMDM; assay: Inhibition of osteoclastogenesis in M-CSF/RANKL-induced osteoclast differentiation in C57BL/6J mouse BMDM cells assessed as reduction in cathepsin K level measured after 5 days by Western blot analysis; assay type: functional, cell-based; conditions: dose <= 2.0 µM, time 5.0 day
[19] = test system: MC3T3-E1; assay: Effect on osteoblast differentiation in mouse MC3T3-E1 cells assessed as change in collagen I level at 0.5 to 2 uM incubated for 7 days by Western blot analysis; assay type: functional, cell-based; conditions: dose 0.5-2 µM, time 7.0 day
[20] = test system: MC3T3-E1; assay: Cytotoxicity against mouse MC3T3-E1 cells at 0.5 to 2 uM incubated for 7 days by MTT assay; assay type: toxicity, cell-based; conditions: mc3t3-e1, 168 h, dose 0.5-2 µM, time 7 day
[21] = test system: BMDM; assay: Effect in JNK level in M-CSF/RANKL-induced osteoclast differentiation in C57BL/6J mouse BMDM cells at 1 uM measured upto 60 mins by Western blot analysis; assay type: functional, cell-based
[22] = test system: BMDM; assay: Inhibition of osteoclastogenesis in M-CSF/RANKL-induced osteoclast differentiation in C57BL/6J mouse BMDM cells assessed as reduction in TRAP mRNA level measured after 5 days by qRT-PCR analysis; assay type: functional, cell-based; conditions: dose <= 2.0 µM, time 5.0 day
[23] = Toxicity in OVX-induced osteoporosis C57BL/6 mouse model assessed as pathological change in kidney at 10 mg/kg, po administered every other day for 8 weeks by H and E staining based analysis; assay type: organism-based; conditions: in vivo, 1344 h
[24] = test system: BMDM; assay: Inhibition of osteoclastogenesis in M-CSF/RANKL-induced osteoclast differentiation in C57BL/6J mouse BMDM cells assessed as decrease in NFATc1 level at 1 uM measured for 5 days by Western blot analysis; assay type: functional, cell-based; conditions: time 5.0 day
[25] = test system: BMDM; assay: Inhibition of osteoclastogenesis in M-CSF/RANKL-induced osteoclast differentiation in C57BL/6J mouse BMDM cells assessed as reduction in bone resorption area measured after 6 days by hydroxyapatite resorption assay; assay type: functional, cell-based; conditions: dose <= 2.0 µM, time 6.0 day
[26] = test system: BMDM; assay: Inhibition of osteoclastogenesis in M-CSF/RANKL-induced osteoclast differentiation in C57BL/6J mouse BMDM cells assessed as reduction in ERK phosphorylation at 1 uM measured upto 60 mins by Western blot analysis; assay type: functional, cell-based
[27] = test system: BMDM; assay: Inhibition of osteoclastogenesis in M-CSF/RANKL-induced osteoclast differentiation in C57BL/6J mouse BMDM cells assessed as reduction in JNK phosphorylation at 1 uM measured upto 60 mins by Western blot analysis; assay type: functional, cell-based
[28] = test system: BMDM; assay: Inhibition of osteoclastogenesis in M-CSF/RANKL-induced osteoclast differentiation in C57BL/6J mouse BMDM cells assessed as reduction in NFATc1 level measured after 5 days by Western blot analysis; assay type: functional, cell-based; conditions: dose <= 2.0 µM, time 5.0 day
[29] = Cytotoxicity against C57BL/6J mouse BMDM cells assessed as decrease in cell viability at 20 uM incubated for 48 hrs by MTT assay; assay type: toxicity, cell-based
[30] = test system: BMDM; assay: Inhibition of osteoclastogenesis in M-CSF/RANKL-induced osteoclast differentiation in C57BL/6J mouse BMDM cells assessed as suppression of osteoclast size measured after 7 days by F-actin ring-TRITC phalloidin staining based analysis; assay type: functional, cell-based; conditions: dose <= 2.0 µM, time 7.0 day
[31] = test system: MC3T3-E1; assay: Effect on osteoblast differentiation in mouse MC3T3-E1 cells assessed as change in Runx2 level at 0.5 to 2 uM incubated for 7 days by Western blot analysis; assay type: functional, cell-based; conditions: dose 0.5-2 µM, time 7.0 day
[32] = test system: BMDM; assay: Effect in p65 level in M-CSF/RANKL-induced osteoclast differentiation in C57BL/6J mouse BMDM cells at 1 uM measured upto 60 mins by Western blot analysis; assay type: functional, cell-based

SMILES: O=C1C([Se]c2ccccc2)=C([Se]c2ccccc2)C(=O)N1Cc1ccccc1
- Activity [1]: Non-toxic
- inhibition [2]: Active
- Activity [3]: Active; Displayed Similar Effect With That Exhibited By Alendronate
- Activity [4]: No effect
- Activity [5]: No effect
- Activity [6]: Active; Displayed Similar Effect With That Exhibited By Alendronate
- Activity [7]: No effect
- Activity [8]: Non-toxic
- pIC50 ([9]; 144 h): 6.44
- inhibition ([9]; dose <= 2.0 µM, time 6.0 day): Dose-dependent-effect
- Activity [10]: No effect
- inhibition [11]: Active
- inhibition [12]: Dose-dependent-effect
- Activity [13]: No effect
- inhibition [14]: Active
- inhibition [15]: Active
- Activity [16]: No effect
- Activity [17]: Non-toxic
- inhibition [18]: Dose-dependent-effect
- Activity [19]: No effect
- Activity [20]: Non-toxic
- Activity [21]: No effect
- inhibition [22]: Dose-dependent-effect
- Activity [23]: Non-toxic
- inhibition [24]: Active
- inhibition [25]: Dose-dependent-effect
- inhibition [26]: Active
- inhibition [27]: Active
- inhibition [28]: Dose-dependent-effect
- Activity [29]: Non-toxic
- inhibition [30]: Dose-dependent-effect
- Activity [31]: No effect
- Activity [32]: No effect
